According to US20220152045A1 (priority 2012, published 2022):
Where two headings read alike, the source gives them in different places.

Tests used:
[1] = system: non-human animal (for example, a monkey); test: Continuous intravenous administration to a non-human animal, vasostimulant; type: in vivo; conditions: continuous i.v. 1 mg/kg/h to 2 mg/kg/h for several hours (4 to 6 hours), in the neighborhood of an effective dose
From the text: It can be said that this is an astonishingly excellent effect provided by the dosing regimen of the invention.

[2] = system: surgery patients at the age of 20 or older and younger than 65; conditions: in vivo
[3] = system: surgery patients at the age of 20 or older and younger than 65; conditions: in vivo; remark: listed apart in the source
[4] = system: surgery patients at the age of 65 or older; conditions: in vivo
[5] = system: surgery patients at the age of 65 or older; conditions: in vivo; remark: listed apart in the source
patients = test: Clinical trials of the Examples taken together (85 cases of patients in total); conditions: dosing regimen of the invention, amount per kg equal to or more than in the preceding animal tests

Compound: COC(=O)CC[C@@H]1N=C(c2ccccn2)c2cc(Br)ccc2-n2c(C)cnc21.O=S(=O)(O)c1ccccc1 [Compound B, Methyl 3-[(4S)-8-bromo-1-methyl-6-(2-pyridinyl)-4H-imidazo[1,2-a][1,4]benzodiazepin-4-yl]propanoate benzenesulfonate]
- Vasostimulant [1]: vasostimulant is observed
- Other side effects to be concerned or abnormal laboratory data [2]: not observed
- Number of test subjects who developed hypotension, adverse event ([3]; human): 3 patients
- Proportion of test subjects who developed hypotension as a side effect ([3]; human): 10%
- Average time until the patient opened eyes [3]: 13.9 min
- Average time until the patient stated the date of birth [3]: 21.5 min
- Average time until the patient were allowed to leave the surgery room [3]: 25.5 min
- Average time until the trachea was extubated [3]: 16.4 min
- Other side effects to be concerned or abnormal laboratory data [3]: not observed
- Recollection during anesthesia ([3]; 1 mg/kg): no recollection
- Salvage treatment for sedation during surgery ([3]; 1 mg/kg): without performing a salvage treatment
- Signs of awakening during the surgery ([3]; 1 mg/kg): not observed
- Completion rate of endotracheal intubation ([3]; 12 mg/kg): 100%
- Time until loss of consciousness (range of actual values) ([3]; 12 mg/kg): (48-120) sec
- Completion rate of endotracheal intubation [4]: 100%
- Other side effects to be concerned or abnormal laboratory data [4]: not observed
- Number of test subjects who developed hypotension, adverse event ([5]; human): 3 Patients
- Proportion of test subjects who developed hypotension as a side effect ([5]; human): 20%
- Average time until the patient opened eyes [5]: 10.9 min
- Average time until the patient stated the date of birth [5]: 18.5 min
- Average time until the patient were allowed to leave the surgery room [5]: 19.1 min
- Average time until the trachea was extubated [5]: 13.6 min
- Other side effects to be concerned or abnormal laboratory data [5]: not observed
- Recollection during anesthesia ([5]; 1 mg/kg): no recollection
- Salvage treatment for sedation during surgery ([5]; 1 mg/kg): without performing a salvage treatment
- Signs of awakening during the surgery ([5]; 1 mg/kg): not observed
- Completion rate of endotracheal intubation ([5]; 4 mg/kg): 100%
- Time until loss of consciousness (range of actual values) ([5]; 4 mg/kg): (70-135) sec
- Vasostimulant (patients): does not cause the vasostimulant
